Measured values as given in patent US20240254119A1 (THIRD HARMONIC BIO, INC., priority 2022, published 2024).

biological target: T1, wtKIT (Homo sapiens, UniProt P10721); assay: HTRF biochemical assay, wtKIT (phosphorylation of a peptide substrate); details: Table 4
T1 construct: 1888289AM in the reaction mixtures
Description: Exemplary compounds were tested for ability to inhibit the phosphorylation of a peptide substrate by the tyrosine kinase wt KIT, PDGFRα, or CSF-1R. Assay procedures and results are described below.
Enzyme, substrate, and cofactors (ATP and Mn^2+) are combined in a well of a microtiter plate and incubated for 3 hours at 25° C. At the end of the incubation, the reaction is quenched by the addition of an EDTA-containing buffer.
The substrate used in the CSF-1R and PDGFRα assay is FAM-[…]-CONH2 (FAM is carboxyfluorescein). Peptide should be >95% purity. The substrate for the KIT assay is FAM-[…]-NH2.
• 1. To a well of a 384-wellplate add 5 μL of 2× enzyme buffer (or control). • 2. Add 100 nL of 100× compound. Enzyme and compound may be pre-incubated at this time if desired. • 3. Add 5 μL of 2× substrate buffer. • 4. Incubate plate at 25° C. for 3 hours. • 5. Add 10 uL of anti-phosphotyrosine antibody buffer. • 6. Read plate in BioTek Synergy Reader. Reaction Conditions for wtKIT Assay
• 100 mM HEPES, pH 7.5 0.1% BSA • 0.01% Triton x-100 • 1 mM DTT • 10 mM MnCl2 • 10 μM Sodium Orthovanadate • 10 μM Beta-Glycerophosphate • 400 μM ATP • 1% DMSO (from compound) • 1 μM FAM-[…]-CONH2, 5.0 nM wtKIT Enzyme (1888289AM)* • *Specific activity may vary from lot to lot. Enzyme concentration may need to be adjusted to yield 10-20% conversion of substrate to product.

T1 sequence (P10721 26-976): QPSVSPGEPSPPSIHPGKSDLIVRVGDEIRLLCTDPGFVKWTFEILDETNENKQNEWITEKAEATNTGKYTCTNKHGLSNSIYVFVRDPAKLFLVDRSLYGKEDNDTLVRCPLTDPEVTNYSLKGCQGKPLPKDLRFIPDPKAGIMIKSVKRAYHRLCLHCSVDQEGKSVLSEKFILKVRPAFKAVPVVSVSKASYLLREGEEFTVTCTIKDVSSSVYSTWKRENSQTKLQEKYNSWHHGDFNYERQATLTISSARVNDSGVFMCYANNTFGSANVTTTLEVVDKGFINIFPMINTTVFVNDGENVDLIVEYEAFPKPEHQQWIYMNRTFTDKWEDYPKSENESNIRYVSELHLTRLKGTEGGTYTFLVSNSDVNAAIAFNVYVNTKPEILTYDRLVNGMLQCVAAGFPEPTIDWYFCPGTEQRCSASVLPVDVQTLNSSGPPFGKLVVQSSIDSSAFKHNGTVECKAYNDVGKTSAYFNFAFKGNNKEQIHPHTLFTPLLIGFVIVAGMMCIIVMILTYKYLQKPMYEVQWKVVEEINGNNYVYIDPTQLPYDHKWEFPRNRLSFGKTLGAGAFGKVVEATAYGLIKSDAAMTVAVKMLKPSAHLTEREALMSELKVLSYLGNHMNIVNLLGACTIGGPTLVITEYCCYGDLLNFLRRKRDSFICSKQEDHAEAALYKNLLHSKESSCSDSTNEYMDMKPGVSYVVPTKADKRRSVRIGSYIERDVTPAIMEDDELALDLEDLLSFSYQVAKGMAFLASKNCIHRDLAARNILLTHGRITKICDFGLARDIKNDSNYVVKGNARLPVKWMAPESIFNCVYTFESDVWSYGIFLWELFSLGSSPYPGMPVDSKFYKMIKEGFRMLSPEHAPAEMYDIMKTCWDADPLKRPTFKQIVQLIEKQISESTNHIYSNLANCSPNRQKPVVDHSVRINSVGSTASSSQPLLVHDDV

`COc1ccn2c(C(=O)Nc3cc(-c4noc(CCC(C)(C)O)n4)ccc3C)cnc2c1` [Compound I-561, N-(5-(5-(3-hydroxy-3-methylbutyl)-1,2,4-oxadiazol-3-yl)-2-methylphenyl)-7-methoxyimidazo[1,2-a]pyridine-3-carboxamide] and `COc1ccn2c(C(=O)Nc3cc(-c4noc(C(C)O)n4)ccc3C)cnc2c1` (stereo not drawn) [Compound I-742] cannot be ordered by IC50: at most 50 nM for the first, 50 to 500 nM for the second.

`Cc1ccc(-c2noc(C[C@H](O)C(F)F)n2)cc1NC(=O)c1cnc2cc(-c3ccn(C)n3)ccn12` [Compound I-555, (S)—N-(5-(5-(3,3-difluoro-2-hydroxypropyl)-1,2,4-oxadiazol-3-yl)-2-methylphenyl)-7-(1-methyl-1H-pyrazol-3-yl)imidazo[1,2-a]pyridine-3-carboxamide] and `Cc1ccc(-c2noc(C[C@H](O)C(F)F)n2)cc1NC(=O)c1cnc2cc(-c3cscn3)ccn12` [Compound I-554, (S)—N-(5-(5-(3,3-difluoro-2-hydroxypropyl)-1,2,4-oxadiazol-3-yl)-2-methylphenyl)-7-(thiazol-4-yl)imidazo[1,2-a]pyridine-3-carboxamide] cannot be ordered by IC50: at most 50 nM for the first, at most 50 nM for the second.

`Cc1ccc(-c2noc(C[C@H](O)C(F)F)n2)cc1NC(=O)c1cnc2cc(COCc3nn[nH]n3)ccn12` [Compound I-597, (S)-7-(((2H-tetrazol-5-yl)methoxy)methyl)-N-(5-(5-(3,3-difluoro-2-hydroxypropyl)-1,2,4-oxadiazol-3-yl)-2-methylphenyl)imidazo[1,2-a]pyridine-3-carboxamide] and `Cc1ccc(-c2noc(CC(O)C(F)F)n2)cc1NC(=O)c1cnc2cc(COCCO)ccn12` (single isomer, unassigned) [Compound I-511] cannot be ordered by IC50: at most 50 nM for the first, 50 to 500 nM for the second.

`Cc1nc(-c2ccc(C)c(NC(=O)c3cnc4cc(C5COC5)ccn34)c2)no1` [Compound I-687] and `Cc1nc(-c2ccc(C)c(NC(=O)c3cnc4cc(Cl)ccn34)c2)no1` [Compound I-675] cannot be ordered by IC50: 50 to 500 nM for the first, at most 50 nM for the second.

`Cc1ccc(-c2ncon2)cc1NC(=O)c1cnc2cc(COCCO)ccn12` [Compound I-700] and `CCc1nc(-c2ccc(C)c(NC(=O)c3cnc4cc(COCCO)ccn34)c2)no1` [Compound I-754] cannot be ordered by IC50: 50 to 500 nM for the first, at most 50 nM for the second.

`Cc1ccc(-c2noc([C@H]3C[C@@H]3F)n2)cc1NC(=O)c1cnc2cc(OCCCN3CCCC3)ccn12` [Compound I-630, N-(5-(5-((1R,2S)-2-fluorocyclopropyl)-1,2,4-oxadiazol-3-yl)-2-methylphenyl)-7-(3-(pyrrolidin-1-yl)propoxy)imidazo[1,2-a]pyridine-3-carboxamide] and `Cc1ccc(-c2noc([C@H]3C[C@@H]3F)n2)cc1NC(=O)c1cnc2cc(COCC3(O)CC3)ccn12` [Compound I-622, N-(5-(5-((1R,2S)-2-fluorocyclopropyl)-1,2,4-oxadiazol-3-yl)-2-methylphenyl)-7-(((1-hydroxycyclopropyl)methoxy)methyl)imidazo[1,2-a]pyridine-3-carboxamide] cannot be ordered by IC50: at most 50 nM for the first, at most 50 nM for the second.

`Cc1ccc(-c2ncon2)cc1NC(=O)c1cnc2cc(-c3ccn(C)n3)ccn12` [Compound I-684] and `Cc1ccc(-c2noc([C@H]3CCN3)n2)cc1NC(=O)c1cnc2cc(-c3ccn(C)n3)ccn12` [Compound I-624, N-[5-[5-[(2R)-azetidin-2-yl]-1,2,4-oxadiazol-3-yl]-2-methyl-phenyl]-7-(1-methylpyrazol-3-yl)imidazo[1,2-a]pyridine-3-carboxamide] cannot be ordered by IC50: at most 50 nM for the first, at most 50 nM for the second.

`Cc1ccc(-c2noc([C@H]3C[C@@H]3F)n2)cc1NC(=O)c1cnn2cc(COCC(C)(C)O)ccc12` [Compound I-466, N-[5-[5-[(1R,2S)-2-fluorocyclopropyl]-1,2,4-oxadiazol-3-yl]-2-methyl-phenyl]-6-[(2-hydroxy-2-methylpropoxy)methyl]pyrazolo[1,5-a]pyridine-3-carboxamide] and `Cc1ccc(-c2noc([C@H]3C[C@@H]3F)n2)cc1NC(=O)c1cnn2cc(F)ccc12` [Compound I-486, 6-fluoro-N-(5-(5-((1R,2S)-2-fluorocyclopropyl)-1,2,4-oxadiazol-3-yl)-2-methylphenyl)pyrazolo[1,5-a]pyridine-3-carboxamide] cannot be ordered by IC50: at most 50 nM for the first, at most 50 nM for the second.

`Cc1ccc(-c2noc([C@H]3C[C@@H]3F)n2)cc1NC(=O)c1cnc2cc3c(cn12)COC3C` (single isomer, unassigned) [Compound I-471, (6R*)—N-[5-[5-[(1R,2S)-2-fluorocyclopropyl]-1,2,4-oxadiazol-3-yl]-2-methyl-phenyl]-6-methyl-5-oxa-1,10-diazatricyclo[7.3.0.03,7]dodeca-2,7,9,11-tetraene-12-carboxamide] and `Cc1ccc(-c2noc([C@H]3C[C@@H]3F)n2)cc1NC(=O)c1cnc2cc(-c3cscn3)ccn12` [Compound I-547, N-(5-(5-((1R,2S)-2-fluorocyclopropyl)-1,2,4-oxadiazol-3-yl)-2-methylphenyl)-7-(thiazol-4-yl)imidazo[1,2-a]pyridine-3-carboxamide] cannot be ordered by IC50: at most 50 nM for the first, at most 50 nM for the second.

`Cc1ccc(-c2noc(-c3cccnc3)n2)cc1NC(=O)c1cnc2cc(COCCO)ccn12` [Compound I-708] and `COc1ccn2c(C(=O)Nc3cc(-c4noc(-c5ccccn5)n4)ccc3C)cnc2c1` [Compound I-536, 7-methoxy-N-(2-methyl-5-(5-(pyridin-2-yl)-1,2,4-oxadiazol-3-yl)phenyl)imidazo[1,2-a]pyridine-3-carboxamide] cannot be ordered by IC50: 50 to 500 nM for the first, at most 50 nM for the second.

`Cc1ccc(-c2noc([C@H]3C[C@@H]3F)n2)cc1NC(=O)c1cnc2cc(COC[C@@H](O)C(F)F)ccn12` [Compound I-500, 7-(((R)-3,3-difluoro-2-hydroxypropoxy)methyl)-N-(5-(5-((1R,2S)-2-fluorocyclopropyl)-1,2,4-oxadiazol-3-yl)-2-methylphenyl)imidazo[1,2-a]pyridine-3-carboxamide] and `Cc1ccc(-c2noc([C@H]3C[C@@H]3F)n2)cc1NC(=O)c1cnc2ccc(COCCO)cn12` [Compound I-453, N-[5-[5-[(1R,2S)-2-fluorocyclopropyl]-1,2,4-oxadiazol-3-yl]-2-methyl-phenyl]-6-(2-hydroxyethoxymethyl)imidazo[1,2-a]pyridine-3-carboxamide] cannot be ordered by IC50: at most 50 nM for the first, at most 50 nM for the second.

First: Cc1ccn2c(C(=O)Nc3cc(-c4noc(CC(=O)CF)n4)ccc3C)cnc2c1 [Compound I-589]
Second: Cc1ccn2c(C(=O)Nc3cc(-c4noc(CC5CCCCO5)n4)ccc3C)cnc2c1 (stereo not drawn) [Compound I-583, 7-methyl-N-(2-methyl-5-(5-((tetrahydro-2H-pyran-2-yl)methyl)-1,2,4-oxadiazol-3-yl)phenyl)imidazo[1,2-a]pyridine-3-carboxamide]
The IC50 of the first is higher: 500 to 5000 nM for the first, at most 50 nM for the second. The second is the more potent here.

`Cc1ccc(-c2noc(N3CC(F)(F)C3)n2)cc1NC(=O)c1cnc2cc(F)c(Cl)cn12` [Compound I-610] and `Cc1ccc(-c2noc([C@@H]3CC4(CC4)CN3)n2)cc1NC(=O)c1cnc2cc(F)ccn12` [Compound I-628, (S)—N-(5-(5-(5-azaspiro[2.4]heptan-6-yl)-1,2,4-oxadiazol-3-yl)-2-methylphenyl)-7-fluoroimidazo[1,2-a]pyridine-3-carboxamide] cannot be ordered by IC50: 50 to 500 nM for the first, at most 50 nM for the second.

Compound `Cc1ccc(-c2noc(C3CC(F)(F)C3)n2)cc1NC(=O)c1cnc2cc(COCC(C)(C)O)ccn12` [Compound I-521, N-(5-(5-(3,3-difluorocyclobutyl)-1,2,4-oxadiazol-3-yl)-2-methylphenyl)-7-((2-hydroxy-2-methylpropoxy)methyl)imidazo[1,2-a]pyridine-3-carboxamide] has an IC50 of at most 50 nM.
